# Results taken from PubChem BioAssay AID330 (DTP/NCI, 2004).
# Values joined by “and” are separate entries in the source; they are usually repeats but may differ in a detail not shown here. Identical values can stand only once. Toxic doses and inconclusive results are not listed.
# Tested on: P388 leukemia ip, CD2F1 mice, survival T/C
# Test: NCI In Vivo Anticancer Drug Screen. Data for tumor model P388 Leukemia (intraperitoneal) in CD2F1 (CDF1) mice
# Conditions: endpoint: median survival time, higher = longer survival
# In short: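 Mice carrying the transplanted tumor received test compound or vehicle. Survival was recorded in each group, and the value is the treated-group measurement divided by that of the vehicle-treated control group.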
structure (smiles),measurement,setting,value
CO[C@H]1C[C@](C)(O)Cc2cc3c(c(O)c21)C(=O)c1c(O)cc2c(c1C3=O)O[C@@H]1O[C@@]2(C)[C@H](O)[C@@H](N(C)C)[C@@H]1O,T/C,"dose: 1.5 mg/kg/injection, schedule: Q01DX005 (iv), vehicle: clinical formulation",115 % of control
same,T/C,"dose: 1.56 mg/kg/injection, schedule: Q01DX009 (ip), vehicle: other",156 % of control and 166 % of control
same,T/C,"dose: 1.6 mg/kg/injection, schedule: Q01DX009 (oral), vehicle: other",95 % of control
same,T/C,"dose: 2.5 mg/kg/injection, schedule: Q01DX005 (ip), vehicle: clinical formulation",158 % of control and 166 % of control
same,T/C,"dose: 2.5 mg/kg/injection, schedule: Q01DX005 (ip), vehicle: other",165 % of control
same,T/C,"dose: 3.0 mg/kg/injection, schedule: Q01DX005 (iv), vehicle: other",124 % of control
same,T/C,"dose: 3.0 mg/kg/injection, schedule: Q01DX009 (ip), vehicle: other",159 % of control
same,T/C,"dose: 3.12 mg/kg/injection, schedule: Q01DX009 (ip), vehicle: saline + alcohol",157 % of control
same,T/C,"dose: 3.13 mg/kg/injection, schedule: Q01DX009 (oral), vehicle: other",100 % of control and 102 % of control
same,T/C,"dose: 3.13 mg/kg/injection, schedule: Q01DX009 (oral), vehicle: saline",103 % of control
same,T/C,"dose: 4.5 mg/kg/injection, schedule: Q01DX005 (ip), vehicle: other",156 % of control and 161 % of control
same,T/C,"dose: 4.5 mg/kg/injection, schedule: Q01DX005 (iv), vehicle: clinical formulation",160 % of control and 169 % of control
same,T/C,"dose: 5.0 mg/kg/injection, schedule: Q01DX005 (ip), vehicle: clinical formulation",185 % of control and 190 % of control
same,T/C,"dose: 5.0 mg/kg/injection, schedule: Q01DX005 (ip), vehicle: distilled water + Tween-80",158 % of control and 178 % of control
same,T/C,"dose: 5.0 mg/kg/injection, schedule: Q01DX005 (ip), vehicle: other",185 % of control
same,T/C,"dose: 6.25 mg/kg/injection, schedule: Q01DX009 (ip), vehicle: saline + alcohol",157 % of control
same,T/C,"dose: 6.25 mg/kg/injection, schedule: Q01DX009 (oral), vehicle: other",110 % of control and 113 % of control and 122 % of control
same,T/C,"dose: 6.25 mg/kg/injection, schedule: Q04DX003 (ip), vehicle: other",162 % of control and 165 % of control
same,T/C,"dose: 6.48 mg/kg/injection, schedule: Q04DX003 (ip), vehicle: other",180 % of control
same,T/C,"dose: 6.7 mg/kg/injection, schedule: Q01DX005 (ip), vehicle: other",172 % of control and 176 % of control
same,T/C,"dose: 6.7 mg/kg/injection, schedule: Q01DX005 (iv), vehicle: clinical formulation",187 % of control and 197 % of control
same,T/C,"dose: 6.7 mg/kg/injection, schedule: Q01DX005 (iv), vehicle: other",161 % of control and 162 % of control
same,T/C,"dose: 10.0 mg/kg/injection, schedule: Q01DX005 (ip), vehicle: clinical formulation",235 % of control and 238 % of control
same,T/C,"dose: 10.0 mg/kg/injection, schedule: Q01DX005 (ip), vehicle: distilled water + Tween-80",180 % of control and 243 % of control
same,T/C,"dose: 10.0 mg/kg/injection, schedule: Q01DX005 (ip), vehicle: other",195 % of control (2×) and 218 % of control
same,T/C,"dose: 10.0 mg/kg/injection, schedule: Q01DX005 (iv), vehicle: clinical formulation",208 % of control and 211 % of control
same,T/C,"dose: 10.0 mg/kg/injection, schedule: Q01DX005 (iv), vehicle: other",176 % of control and 193 % of control
same,T/C,"dose: 10.8 mg/kg/injection, schedule: Q04DX003 (ip), vehicle: other",183 % of control
same,T/C,"dose: 12.5 mg/kg/injection, schedule: Q01DX001 (ip), vehicle: other",155 % of control and 157 % of control
same,T/C,"dose: 12.5 mg/kg/injection, schedule: Q01DX001 (sc), vehicle: other",103 % of control
same,T/C,"dose: 12.5 mg/kg/injection, schedule: Q01DX009 (ip), vehicle: saline + alcohol",178 % of control
same,T/C,"dose: 12.5 mg/kg/injection, schedule: Q01DX009 (oral), vehicle: other",158 % of control
same,T/C,"dose: 12.5 mg/kg/injection, schedule: Q01DX009 (oral), vehicle: saline",156 % of control
same,T/C,"dose: 12.5 mg/kg/injection, schedule: Q04DX003 (ip), vehicle: other",166 % of control and 187 % of control
same,T/C,"dose: 15.0 mg/kg/injection, schedule: Q01DX005 (ip), vehicle: other",224 % of control and 237 % of control
same,T/C,"dose: 15.0 mg/kg/injection, schedule: Q01DX005 (iv), vehicle: clinical formulation",215 % of control and 224 % of control
same,T/C,"dose: 15.0 mg/kg/injection, schedule: Q01DX005 (iv), vehicle: other",196 % of control
same,T/C,"dose: 15.0 mg/kg/injection, schedule: Q01DX009 (oral), vehicle: other",197 % of control
same,T/C,"dose: 18.0 mg/kg/injection, schedule: Q04DX003 (ip), vehicle: other",240 % of control
same,T/C,"dose: 20.0 mg/kg/injection, schedule: Q01DX005 (ip), vehicle: clinical formulation",117 % of control and 284 % of control
same,T/C,"dose: 20.0 mg/kg/injection, schedule: Q01DX005 (ip), vehicle: distilled water + Tween-80",270 % of control and 280 % of control
same,T/C,"dose: 20.0 mg/kg/injection, schedule: Q01DX005 (ip), vehicle: other",284 % of control
same,T/C,"dose: 22.0 mg/kg/injection, schedule: Q01DX009 (oral), vehicle: other",231 % of control
same,T/C,"dose: 22.5 mg/kg/injection, schedule: Q01DX005 (ip), vehicle: other",346 % of control
same,T/C,"dose: 25.0 mg/kg/injection, schedule: Q01DX001 (ip), vehicle: other",150 % of control and 160 % of control
same,T/C,"dose: 25.0 mg/kg/injection, schedule: Q01DX001 (sc), vehicle: other",106 % of control and 112 % of control
same,T/C,"dose: 25.0 mg/kg/injection, schedule: Q01DX009 (ip), vehicle: saline + alcohol",231 % of control
same,T/C,"dose: 25.0 mg/kg/injection, schedule: Q01DX009 (oral), vehicle: other",111 % of control and 211 % of control and 96 % of control
same,T/C,"dose: 25.0 mg/kg/injection, schedule: Q01DX009 (oral), vehicle: saline",229 % of control
same,T/C,"dose: 25.0 mg/kg/injection, schedule: Q04DX003 (ip), vehicle: other",192 % of control and 193 % of control
same,T/C,"dose: 30.0 mg/kg/injection, schedule: Q04DX003 (ip), vehicle: other",247 % of control
same,T/C,"dose: 50.0 mg/kg/injection, schedule: Q01DX001 (ip), vehicle: other",157 % of control and 197 % of control
same,T/C,"dose: 50.0 mg/kg/injection, schedule: Q01DX001 (sc), vehicle: other",100 % of control and 122 % of control
same,T/C,"dose: 50.0 mg/kg/injection, schedule: Q01DX009 (oral), vehicle: other",101 % of control and 103 % of control and 91 % of control
same,T/C,"dose: 50.0 mg/kg/injection, schedule: Q01DX009 (oral), vehicle: saline",91 % of control
same,T/C,"dose: 50.0 mg/kg/injection, schedule: Q04DX003 (ip), vehicle: other",182 % of control and 252 % of control
same,T/C,"dose: 100.0 mg/kg/injection, schedule: Q01DX001 (ip), vehicle: other",169 % of control
same,T/C,"dose: 100.0 mg/kg/injection, schedule: Q01DX001 (sc), vehicle: other",105 % of control
same,T/C,"dose: 200.0 mg/kg/injection, schedule: Q01DX001 (ip), vehicle: other",175 % of control
same,T/C,"dose: 200.0 mg/kg/injection, schedule: Q04DX003 (ip), vehicle: other",95 % of control
O=C1C2CC34CCCN5CC1C1(c6ccccc6NC21CC3)C54 (stereo not given),T/C,"dose: 12.5 mg/kg/injection, schedule: Q01DX005 (ip), vehicle: Klucel (hydroxypropylcellulose) (HPC)",103 % of control
same,T/C,"dose: 25.0 mg/kg/injection, schedule: Q01DX005 (ip), vehicle: Klucel (hydroxypropylcellulose) (HPC)",98 % of control
same,T/C,"dose: 50.0 mg/kg/injection, schedule: Q01DX005 (ip), vehicle: Klucel (hydroxypropylcellulose) (HPC)",103 % of control
NC(=O)CC1(O)c2ccccc2C(=O)c2ccccc21,T/C,"dose: 3.13 mg/kg/injection, schedule: Q01DX009 (ip), vehicle: clinical formulation",97 % of control
same,T/C,"dose: 6.25 mg/kg/injection, schedule: Q01DX009 (ip), vehicle: clinical formulation",104 % of control
same,T/C,"dose: 12.5 mg/kg/injection, schedule: Q01DX009 (ip), vehicle: clinical formulation",97 % of control
same,T/C,"dose: 25.0 mg/kg/injection, schedule: Q01DX009 (ip), vehicle: clinical formulation",94 % of control
same,T/C,"dose: 50.0 mg/kg/injection, schedule: Q01DX009 (ip), vehicle: clinical formulation",97 % of control
same,T/C,"dose: 100.0 mg/kg/injection, schedule: Q01DX009 (ip), vehicle: clinical formulation",100 % of control
CCOC(=O)/C(C#N)=C/c1ccc(-c2cc(C(F)(F)F)cc(C(F)(F)F)c2)o1,T/C,"dose: 50.0 mg/kg/injection, schedule: Q01DX005 (ip), vehicle: saline with Tween-80",92 % of control
same,T/C,"dose: 100.0 mg/kg/injection, schedule: Q01DX005 (ip), vehicle: saline with Tween-80",90 % of control
same,T/C,"dose: 200.0 mg/kg/injection, schedule: Q01DX005 (ip), vehicle: saline with Tween-80",88 % of control
Cc1ccc(S(=O)(=O)N/N=C/C=N/NS(=O)(=O)c2ccc(C)cc2)cc1,T/C,"dose: 12.5 mg/kg/injection, schedule: Q01DX009 (ip), vehicle: other",106 % of control
same,T/C,"dose: 25.0 mg/kg/injection, schedule: Q01DX009 (ip), vehicle: other",107 % of control
same,T/C,"dose: 50.0 mg/kg/injection, schedule: Q01DX009 (ip), vehicle: other",105 % of control
same,T/C,"dose: 100.0 mg/kg/injection, schedule: Q01DX009 (ip), vehicle: other",96 % of control
same,T/C,"dose: 200.0 mg/kg/injection, schedule: Q01DX009 (ip), vehicle: other",97 % of control
COC(=O)C12CC(CCC1C13CC=CC(C)(C)C1C(=O)OC3)C(C)C2=O (stereo not given),T/C,"dose: 100.0 mg/kg/injection, schedule: Q04DX002 (ip), vehicle: saline with Tween-80",92 % of control
same,T/C,"dose: 200.0 mg/kg/injection, schedule: Q04DX002 (ip), vehicle: saline with Tween-80",95 % of control
same,T/C,"dose: 400.0 mg/kg/injection, schedule: Q04DX002 (ip), vehicle: saline with Tween-80",103 % of control
